Laboratory results taken from patent US11000033B2, “Ketone or oxime compound, and herbicide” (NISSAN CHEMICAL CORPORATION, priority 2014, dated 2021).

Legend:
Assay type in all cases: in vivo
Scirpus juncoides [1] = assay: Test Example 1: herbicidal activity, application before weed generation in submerged conditions (symbol B); conditions: application herbicide amount 320 g/ha
Summary of the method: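 Ratings (5: ≥90%, near complete withering; 4: 70–<90%; 3: 40–<70%; 2: 20–<40%; 1: 5–<20%; 0: ≤5%) were assigned 3 weeks after the diluted emulsion was applied to the water surface of freshly sown, submerged pots.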

Scirpus juncoides [2] = assay: Test Example 2: herbicidal activity, application during weed generation in submerged conditions (symbol B); conditions: Table 23; application herbicide amount 320 g/ha; grade 0-5 by criteria of Test Example 1
Summary of the method: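 Compound was applied as a water-diluted emulsion into the standing water of flooded pots (4 cm) once co-sown weeds reached one to two leaves. Greenhouse temperature was 25° C. to 30° C., soil was alluvial, and each species was rated visually after 3 weeks.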

[3] = test system: Echinochloa crus-galli var. crus-galli; assay: Test Example 4: herbicidal effect by soil treatment (symbol H); conditions: application herbicide amount 320 g/ha
Summary of the method: (§1)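 Seeds were sown in sterilized diluvial soil, covered with about 1.5 cm of soil, and the soil surface was sprayed with a water-diluted emulsion of the compound at a predetermined rate. Plants grew in a greenhouse at 25° C. to 30° C.; effects were scored visually 3 weeks after application.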

Avena fatua [4] = assay: Test Example 4: herbicidal effect by soil treatment (symbol I); conditions: application herbicide amount 320 g/ha
Summary of the method: as §1

Amaranthus retroflexus = assay: Test Example 4: herbicidal effect by soil treatment (symbol N); conditions: application herbicide amount 320 g/ha
Summary of the method: as §1

Galium spurium [5] = assay: Test Example 4: herbicidal effect by soil treatment (symbol Q); conditions: application herbicide amount 320 g/ha
Summary of the method: as §1

wheat = assay: Test Example 4: effect on crop by soil treatment (symbol e); conditions: application herbicide amount 320 g/ha
Summary of the method: (§2)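 Steps: fill box with sterilized diluvial soil; sow seed spot-like; cover with ~1.5 cm soil; grow in greenhouse (25° C. to 30° C.).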

beet [6] = assay: Test Example 4: effect on crop by soil treatment (symbol f); conditions: application herbicide amount 320 g/ha
Summary of the method: as §2

rapeseed = assay: Test Example 4: effect on crop by soil treatment (symbol g); conditions: application herbicide amount 320 g/ha
Summary of the method: as §2

Setaria viridis = assay: Test Example 5: herbicidal effect by foliage application, plastic box (symbol G); conditions: 320 g/ha, 3 weeks after application
Summary of the method: (§3)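 Visual herbicidal score, taken three weeks post-application, of seedlings sprayed on the foliage with water-diluted emulsion at a predetermined amount; plants were 14 days old, greenhouse-raised at 25° C. to 30° C.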

Avena fatua [7] = assay: Test Example 5: herbicidal effect by foliage application, plastic box (symbol I); conditions: 320 g/ha, 3 weeks after application
Summary of the method: as §3

Apera spica-venti = assay: Test Example 5: herbicidal effect by foliage application, plastic box (symbol L); conditions: 320 g/ha, 3 weeks after application
Summary of the method: as §3

Chenopodium album = assay: Test Example 5: herbicidal effect by foliage application, plastic box (symbol O); conditions: 320 g/ha, 3 weeks after application
Summary of the method: as §3

Galium spurium [8] = assay: Test Example 5: herbicidal effect by foliage application, plastic box (symbol Q); conditions: 320 g/ha, 3 weeks after application
Summary of the method: as §3

Veronica persica = assay: Test Example 5: herbicidal effect by foliage application, plastic box (symbol R); conditions: 320 g/ha, 3 weeks after application
Summary of the method: as §3

soybean = assay: Test Example 5: effect on crop by foliage application, plastic box (symbol d); conditions: 320 g/ha, 3 weeks after application
Summary of the method: (§4)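 Foliage-application test plants come from spot sowing in sterilized diluvial soil under a soil layer of about 1.5 cm, grown at 25° C. to 30° C. in a greenhouse.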

beet [9] = assay: Test Example 5: effect on crop by foliage application, plastic box (symbol f); conditions: 320 g/ha, 3 weeks after application
Summary of the method: as §4

SMILES | Herbicidal effect grade, B: Scirpus juncoides (Scirpus juncoides [1]) | Herbicidal effect grade, B: Scirpus juncoides (Scirpus juncoides [2]) | Herbicidal effect grade, H: Echinochloa crus-galli var. crus-galli [3] | Herbicidal effect grade, I: Avena fatua (Avena fatua [4]) | Herbicidal effect grade, N: Amaranthus retroflexus (Amaranthus retroflexus) | Herbicidal effect grade, Q: Galium spurium (Galium spurium [5]) | Effect on crop grade, e: wheat (wheat) | Effect on crop grade, f: beet (beet [6]) | Effect on crop grade, g: rapeseed (rapeseed) | G: Setaria viridis, herbicidal effect (criteria of Test Example 1) (Setaria viridis) | I: Avena fatua, herbicidal effect (criteria of Test Example 1) (Avena fatua [7]) | L: Apera spica-venti, herbicidal effect (criteria of Test Example 1) (Apera spica-venti) | O: Chenopodium album, herbicidal effect (criteria of Test Example 1) (Chenopodium album) | Q: Galium spurium, herbicidal effect (criteria of Test Example 1) (Galium spurium [8]) | R: Veronica persica, herbicidal effect (criteria of Test Example 1) (Veronica persica) | d: soybean, effect on crop (criteria of Test Example 1) (soybean) | f: beet, effect on crop (criteria of Test Example 1) (beet [9])
CON=C(C)CC1CC(OC(=O)N(C)C)=C(c2c(C)cc(C)cc2OC)C1=O (stereo not shown) [6-109] | 3 (Herbicidal ratio of 40% or higher and lower than 70%) | 2 (Herbicidal ratio of 20% or higher and lower than 40%) | 5 (Herbicidal ratio of 90% or more (almost completely withered)) | 0 (Herbicidal ratio of 5% or lower (almost no effect)) | 0 (Herbicidal ratio of 5% or lower (almost no effect)) | 0 (Herbicidal ratio of 5% or lower (almost no effect)) | 0 (Herbicidal ratio of 5% or lower (almost no effect)) | 0 (Herbicidal ratio of 5% or lower (almost no effect)) | 0 (Herbicidal ratio of 5% or lower (almost no effect)) | 5 (Herbicidal ratio of 90% or more (almost completely withered)) | 5 (Herbicidal ratio of 90% or more (almost completely withered)) | 5 (Herbicidal ratio of 90% or more (almost completely withered)) | 0 (Herbicidal ratio of 5% or lower (almost no effect)) | 0 (Herbicidal ratio of 5% or lower (almost no effect)) | 1 (Herbicidal ratio of 5% or higher and lower than 20%) | 2 (Herbicidal ratio of 20% or higher and lower than 40%) | 0 (Herbicidal ratio of 5% or lower (almost no effect))
CON=C(C)CC1CC(OC(=O)N2CCCC2)=C(c2c(C)cc(C)cc2OC)C1=O (stereo not shown) [6-110] | 3 (Herbicidal ratio of 40% or higher and lower than 70%) | 1 (Herbicidal ratio of 5% or higher and lower than 20%) | 5 (Herbicidal ratio of 90% or more (almost completely withered)) | 0 (Herbicidal ratio of 5% or lower (almost no effect)) | 0 (Herbicidal ratio of 5% or lower (almost no effect)) | 0 (Herbicidal ratio of 5% or lower (almost no effect)) | 0 (Herbicidal ratio of 5% or lower (almost no effect)) | 0 (Herbicidal ratio of 5% or lower (almost no effect)) | 0 (Herbicidal ratio of 5% or lower (almost no effect)) | 5 (Herbicidal ratio of 90% or more (almost completely withered)) | 5 (Herbicidal ratio of 90% or more (almost completely withered)) | 5 (Herbicidal ratio of 90% or more (almost completely withered)) | 0 (Herbicidal ratio of 5% or lower (almost no effect)) | 3 (Herbicidal ratio of 40% or higher and lower than 70%) | 2 (Herbicidal ratio of 20% or higher and lower than 40%) | 2 (Herbicidal ratio of 20% or higher and lower than 40%) | 0 (Herbicidal ratio of 5% or lower (almost no effect))
CON=C(C)CC1CC(OC(=O)N2CCCCC2)=C(c2c(C)cc(C)cc2OC)C1=O (stereo not shown) [6-111] | 5 (Herbicidal ratio of 90% or more (almost completely withered)) | 3 (Herbicidal ratio of 40% or higher and lower than 70%) | 4 (Herbicidal ratio of 70% or higher and lower than 90%) | 0 (Herbicidal ratio of 5% or lower (almost no effect)) | 0 (Herbicidal ratio of 5% or lower (almost no effect)) | 0 (Herbicidal ratio of 5% or lower (almost no effect)) | 0 (Herbicidal ratio of 5% or lower (almost no effect)) | 0 (Herbicidal ratio of 5% or lower (almost no effect)) | 0 (Herbicidal ratio of 5% or lower (almost no effect)) | 5 (Herbicidal ratio of 90% or more (almost completely withered)) | 5 (Herbicidal ratio of 90% or more (almost completely withered)) | 5 (Herbicidal ratio of 90% or more (almost completely withered)) | 0 (Herbicidal ratio of 5% or lower (almost no effect)) | 0 (Herbicidal ratio of 5% or lower (almost no effect)) | 2 (Herbicidal ratio of 20% or higher and lower than 40%) | 1 (Herbicidal ratio of 5% or higher and lower than 20%) | 0 (Herbicidal ratio of 5% or lower (almost no effect))
CON=C(C)CC1CC(O)=C(c2c(C)cccc2C)C1=O (stereo not shown) [6-112] | 0 (Herbicidal ratio of 5% or lower (almost no effect)) | 0 (Herbicidal ratio of 5% or lower (almost no effect)) | 5 (Herbicidal ratio of 90% or more (almost completely withered)) | 1 (Herbicidal ratio of 5% or higher and lower than 20%) | 1 (Herbicidal ratio of 5% or higher and lower than 20%) | 0 (Herbicidal ratio of 5% or lower (almost no effect)) | 3 (Herbicidal ratio of 40% or higher and lower than 70%) | 0 (Herbicidal ratio of 5% or lower (almost no effect)) | 0 (Herbicidal ratio of 5% or lower (almost no effect)) | 5 (Herbicidal ratio of 90% or more (almost completely withered)) | 5 (Herbicidal ratio of 90% or more (almost completely withered)) | 5 (Herbicidal ratio of 90% or more (almost completely withered)) | 0 (Herbicidal ratio of 5% or lower (almost no effect)) | 0 (Herbicidal ratio of 5% or lower (almost no effect)) | 1 (Herbicidal ratio of 5% or higher and lower than 20%) | 3 (Herbicidal ratio of 40% or higher and lower than 70%) | 0 (Herbicidal ratio of 5% or lower (almost no effect))
CON=C(C)C(C)C1CC(O)=C(c2c(C)cc(Br)cc2OC)C1=O (stereo not shown) [6-113] | 0 (Herbicidal ratio of 5% or lower (almost no effect)) | 0 (Herbicidal ratio of 5% or lower (almost no effect)) | 5 (Herbicidal ratio of 90% or more (almost completely withered)) | 0 (Herbicidal ratio of 5% or lower (almost no effect)) | 0 (Herbicidal ratio of 5% or lower (almost no effect)) | 0 (Herbicidal ratio of 5% or lower (almost no effect)) | 0 (Herbicidal ratio of 5% or lower (almost no effect)) | 0 (Herbicidal ratio of 5% or lower (almost no effect)) | 1 (Herbicidal ratio of 5% or higher and lower than 20%) | 5 (Herbicidal ratio of 90% or more (almost completely withered)) | 5 (Herbicidal ratio of 90% or more (almost completely withered)) | 5 (Herbicidal ratio of 90% or more (almost completely withered)) | 2 (Herbicidal ratio of 20% or higher and lower than 40%) | 0 (Herbicidal ratio of 5% or lower (almost no effect)) | 0 (Herbicidal ratio of 5% or lower (almost no effect)) | 0 (Herbicidal ratio of 5% or lower (almost no effect)) | 0 (Herbicidal ratio of 5% or lower (almost no effect))
